Article PMC4741889, “Ligand-based chemoinformatic discovery of a novel small molecule inhibitor targeting CDC25 dual specificity phosphatases and displaying in vitro efficacy against melanoma cells” (Oncotarget, 2015)

Legend:
[1] = system: SAN cells; test: Intracellular ROS level (DCFH-DA), SAN cells; type: cell-based, human; conditions: SAN cells not treated with 7, 0.5 mM apocynin
Experimental: The high redox reactivity of quinonoid molecules, like compound 7, could greatly perturb the intracellular redox state. […] The oxidant effect of 7 was also evaluated after cell pre-treatment with two antioxidant molecules, such as N-acetyl-cysteine (NAC) and the specific inhibitor of NADPH oxidase, apocynin. To this aim, A2058 and SAN cells were pre-incubated for 1 h with 10 mM NAC or 45 min with 0.5 mM apocynin and then treated for 4 h with 100 μM compound 7. […] The cytotoxic activity of 7 could be mediated by the observed increase of ROS level.
The intracellular ROS level was monitored using the oxidation-sensitive fluorescence probe DCFH-DA. Cells were seeded into 6-well-plates (3 × 10^5 cells/plate) for 24 h at 37°C and then treated at various times with 100 μM compound 7 or 0.5% DMSO. DCFH-DA was added in the dark at 10 μM final concentration 30-min before the end of each incubation; then, cells were collected, washed in PBS, and finally resuspended in 500 μL PBS for fluorimetric analysis. Measurements were realized in a Cary Eclipse fluorescence spectrophotometer (Varian); excitation and emission wavelengths were set at 485 nm and 530 nm, respectively; both excitation and emission slits were set at 10 nm. The effect of 7 on ROS production was also estimated after pretreatment of cells with 10 mM NAC for 1 h.
Supplementary Figure S5: ROS production and their involvement in the apoptotic process of SAN cells, as induced by treatment with compound 7. A. Time-dependent measurement of ROS production. Cells were incubated with 0.5% DMSO (open bars) or 100 μM compound 7 (black bars) and then the intracellular ROS level was measured. B. Effect of antioxidant molecules on ROS production. The ROS level was also measured in cells untreated or pretreated with NAC or apocynin after a 4-h incubation with DMSO or 7. C. Effect of NAC on apoptosis. The PI incorporation was evaluated in cells untreated or pretreated with NAC after a 48-h incubation with DMSO or 7. ROS production was expressed as a.u., and apoptosis as a percentage. […]

[2] = target: T1, CDC25B (Homo sapiens, UniProt P30305); test: Residual phosphatase activity of recombinant CDC25B, fluorimetric OMFP assay; type: biochemical; conditions: 10 nM CDC25B, 25 μM OMFP, read-out: CDC25B residual activity (%) in the presence of [inhibitor]
T1 construct: Recombinant forms of the catalytic domains of CDC25A, -B and -C were obtained through the vectors pET28a-CDC25A-cd, pET28a-CDC25B-cd and pET28a-CDC25C-cd; made in house
T1 sequence (P30305 431-538 limits assumed): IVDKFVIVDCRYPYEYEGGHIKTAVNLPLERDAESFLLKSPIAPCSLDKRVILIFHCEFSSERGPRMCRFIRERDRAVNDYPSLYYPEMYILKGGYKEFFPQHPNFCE
Experimental: Among the twenty-five structures identified from the multiple ligand-based chemoinformatic approach, eight compounds (2, 10, 12–14, and 16–18) were excluded from the analysis, because endowed with a strong fluorescent signal, which interfered with the emission wavelength of the synthetic substrate 3-O-methylfluorescein phosphate (OMFP) used in the fluorimetric assay. The inhibition of the phosphatase activity of CDC25B by the remaining seventeen analogs was evaluated in the presence of two different concentrations of these compounds (Table 2). […] For this reason, only one of these latter compounds, i.e. 3, was included in the following analysis.
The enzymatic activity of the catalytic domains of CDC25A, -B and -C were determined through a fluorimetric method, which monitored the dephosphorylation of the synthetic substrate OMFP, essentially as previously described. In steady-state enzyme kinetic studies, the residual phosphatase activity of purified recombinant CDC25B was measured at 30°C in the presence of different concentrations of the various inhibitors, using a computer-assisted Cary Eclipse spectrofluorimeter (Varian) equipped with an electronic temperature controller. Excitation and emission wavelengths were set at 485 and 530 nm, respectively; both excitation and emission slits were set at 10 nm. The reaction mixture contained 10 nM CDC25B and different concentrations of the various inhibitors in 500 μL final volume of 20 mM Tris-HCl, pH 7.8, 1 mM DTT. DMSO was used as vehicle control. The reaction started by the addition of 25 μM OMFP, and the formation of the fluorescent product o-methylfluorescein was monitored continuously. The rate of OMFP hydrolysis was expressed as arbitrary units per min (a.u./min). The comparison of the rates determined in the absence and in the presence of the various inhibitors allowed the calculation of the residual phosphatase activity, expressed as a percentage.

[3] = target: T2, CDC25C (Homo sapiens, UniProt P30307); test: Ki from OMFP hydrolysis kinetics (Lineweaver-Burk), CDC25C; type: biochemical; conditions: 40 nM CDC25C, 1–25 μM OMFP; mean ± S.E.; read-out: Ki CDC25C
T2 construct: Recombinant forms of the catalytic domains of CDC25A, -B and -C were obtained through the vectors pET28a-CDC25A-cd, pET28a-CDC25B-cd and pET28a-CDC25C-cd; made in house
T2 sequence (P30307 321-428 limits assumed): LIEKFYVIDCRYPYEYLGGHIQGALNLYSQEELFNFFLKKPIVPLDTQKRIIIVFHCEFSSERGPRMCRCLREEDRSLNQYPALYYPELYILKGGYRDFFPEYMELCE
Experimental: To measure the inhibition constant (Ki) of the recombinant forms of CDC25A, -B and -C towards the various inhibitors, the affinity of the different forms of CDC25 towards OMFP was measured either in the absence or in the presence of fixed concentrations of the various inhibitors. The reaction mixture contained 20 nM CDC25A, or 10 nM CDC25B, or 40 nM CDC25C, and different concentrations of the various inhibitors in 500 μL final volume of 20 mM Tris-HCl, pH 7.8, 1 mM DTT. DMSO was used as vehicle control. […] The corresponding Lineweaver-Burk plots allowed the calculation of the KM for OMFP and of the Vmax of OMFP hydrolysis, expressed as a.u./minmax. […] The Ki values were obtained from the decrease of a.u./minmax in the presence of the inhibitor, according to the equation a.u./mimmax’ = a.u./mimmax/{1 + ([I]/Ki)}, where a.u./mimmax’ represents the Vmax measured in the presence of the concentration [I] of the inhibitor. The Ki values were obtained from at least three independent experiments and reported as mean ± S.E.

[4] = system: A2058 cells; test: MTT cell growth rate, A2058 melanoma cells; type: cell-based, human; conditions: A2058, 100 μM, 48 h, MTT
Experimental: (§1) The human melanoma cell line A2058, kindly provided by CEINGE (Naples, Italy), and SAN cells were derived from lymph nodal metastases and grown in DMEM and RPMI 1640, respectively, supplemented with 10% FBS, 2 mM L-glutamine, 100 IU/mL penicillin G, and 100 μg/mL streptomycin in humidified incubator at 37°C under 5% CO2 atmosphere. All cells were split and seeded every three days and used during the exponential phase of growth. Cell treatments were always carried after 24 h from plating.
(§2) The MTT assay was used to detect cell proliferation essentially as previously described. Briefly, A2058 and SAN cells were plated in 96-well microtiter plates (100 μL/well) at 4000 and 6000 cells/well, respectively. After 24-h seeding, cells were treated with the selected compounds added at 25, 50 or 100 μM concentration, or with 0.5% (v/v) DMSO as a vehicle control. After 24-h, 48-h or 72-h treatment, and upon the addition of 10 μL of MTT solution in the dark, the plate was incubated for 3 h at 37°C under CO2 atmosphere. After medium aspiration and solubilization of formazan crystals, absorbance was measured at 570 nm, using an ELISA plate reader (Bio-Rad, Milano, Italy).

[5] = system: SAN cells; test: MTT cell growth rate, SAN melanoma cells; type: cell-based, human; conditions: 100 μM, 72 h, MTT (not shown)
Experimental: as §1, §2

[6] = system: MCF-7 breast cancer cell line; set-up: method as in PMID 22524450; conditions: cited from earlier work
[7] = system: PC-3 prostate cancer cell line; set-up: method as in PMID 22524450; conditions: cited from earlier work
[8] = system: K562 leukaemia cancer cell line; set-up: method as in PMID 22524450; conditions: cited from earlier work

Row | Compound | basal intracellular redox state [1] | remaining activity at 0.2 µM ([2]; 0.2 μM inhibitor) [%] | remaining activity at 1 µM ([2]; 1 μM inhibitor) [%] | Ki [3] [nM] | cell growth rate [4] | cell growth rate [5] | growth of cancer cell line [6] | growth of cancer cell line [7] | growth of cancer cell line [8]
1 | COc1cc(C(C)=O)ccc1O [apocynin, reference compound] | raised the basal intracellular redox state |  |  |  |  |  |  |  | 
2 | O=C(O)CCc1c2ccc(=O)c(O)c-2oc2c(O)c(O)ccc12 [NSC 119915, reference compound] |  | 38 | 2 | 240 ± 130 | quite ineffective or caused a not significant reduction of cell growth rate | significant reduction of cell growth rate | significantly inhibited the growth | significantly inhibited the growth | significantly inhibited the growth
